Laboratory results as given in article PMC7388970 (The Cell Surface, 2020).
In brackets after ≈: the same amount, converted by molar mass.

System: Mycobacterium bovis BCG cells
Assay: not given
Format: cell-based
Conditions: not given

Row | Structure (SMILES) | proportion of cells showing morphological changes [%]
1 | COc1ccc(C=CC(=O)c2ccccc2)cc1OC [Compound 1a, 3-(3,4-Dimethoxyphenyl)-1-phenylprop-2-en-1-one] | 76

System: mycolic acid biosynthesis in M. bovis BCG
Assay: not given
Format: cell-based, Mycobacterium bovis BCG
Conditions: not given

Row | Structure (SMILES) | FAMEs | production of α- and k-MAMEs
2 | COc1ccc(C=CC(=O)c2ccccc2)cc1OC [Compound 1a, 3-(3,4-Dimethoxyphenyl)-1-phenylprop-2-en-1-one] | accumulation of FAMEs in a dose-dependent manner | dose-dependent decrease

System: J774 cells
Assay: MTT assay for cytotoxicity
Format: cell-based
Conditions: Mus musculus, J774, 24 h, read-out: J-774 (IC50)

Row | Structure (SMILES) | IC50 [µg/mL]
3 | COc1ccc(C=CC(=O)c2ccc(Cl)cc2)cc1OC [Compound 1g, 1-(4-Chlorophenyl)-3-(3,4-dimethoxyphenyl)prop-2-en-1-one] | 12.5 (≈ 41.3 µM)
4 | COc1ccc(C=CC(=O)c2ccc(-c3ccccc3)cc2)cc1OC [Compound 1k, 1-([1,1'-Biphenyl]-4-yl)-3-(3,4-dimethoxyphenyl)prop-2-en-1-one] | 25 (≈ 72.6 µM)
5 | COc1ccc(C=CC(=O)c2ccccc2C)cc1OC [Compound 1m, 3-(3,4-Dimethoxyphenyl)-1-(o-tolyl)prop-2-en-1-one] | 25 (≈ 88.5 µM)
6 | COc1ccc(C=CC(=O)c2ccc(Br)cc2)cc1OC [Compound 1d, 1-(4-Bromophenyl)-3-(3,4-dimethoxyphenyl)prop-2-en-1-one] | 25 (≈ 72 µM)
7 | COc1ccc(C=CC(=O)c2ccccc2Cl)cc1OC [Compound 1f, 1-(2-Chlorophenyl)-3-(3,4-dimethoxyphenyl)prop-2-en-1-one] | 12.5 (≈ 41.3 µM)
8 | COc1ccc(C=CC(=O)c2ccccc2)cc1OC [Compound 1a, 3-(3,4-Dimethoxyphenyl)-1-phenylprop-2-en-1-one] | 50 (≈ 186 µM)
9 | COc1ccc(C=CC(=O)c2cccc(Br)c2)cc1OC [Compound 1b, 1-(3-Bromophenyl)-3-(3,4-dimethoxyphenyl)prop-2-en-1-one] | 25 (≈ 72 µM)
10 | COc1ccc(C=CC(=O)c2ccccc2Br)cc1OC [Compound 1c, 1-(2-Bromophenyl)-3-(3,4-dimethoxyphenyl)prop-2-en-1-one] | 25 (≈ 72 µM)
11 | COc1ccc(C=CC(=O)c2ccc(C)cc2)cc1OC [Compound 1j, 3-(3,4-Dimethoxyphenyl)-1-(p-tolyl)prop-2-en-1-one] | 25 (≈ 88.5 µM)
12 | COc1ccc(C=CC(=O)c2ccc([N+](=O)[O-])cc2)cc1OC [Compound 1n, 3-(3,4-Dimethoxyphenyl)-1-(4-nitrophenyl)prop-2-en-1-one] | 50 (≈ 160 µM)
13 | COc1ccc(C=CC(=O)c2cccc(Cl)c2)cc1OC [Compound 1e, 1-(3-Chlorophenyl)-3-(3,4-dimethoxyphenyl)prop-2-en-1-one] | 12.5 (≈ 41.3 µM)
